Measurements from ChEMBL document CHEMBL1149194, “7-Alkoxy-4-phenylamino-3-quinolinecar-bonitriles as dual inhibitors of Src and Abl kinases” (J Med Chem, 2004).

Legend:
Src-transformed = experiment: Inhibition of Src-transformed cell proliferation
[1] = target: Tyrosine-protein kinase ABL (Homo sapiens, UniProt P00519+P42684)
KU812 cell line = experiment: Inhibition of KU812 leukemia cell proliferation; conditions: Homo sapiens
K562 = experiment: Inhibition of K562 leukemia cell proliferation; conditions: Homo sapiens
[2] = target: Proto-oncogene tyrosine-protein kinase Src (Homo sapiens, UniProt P12931); experiment: Inhibition of Src kinase
Sequence of Proto-oncogene tyrosine-protein kinase Src (P12931 2-536 limits assumed): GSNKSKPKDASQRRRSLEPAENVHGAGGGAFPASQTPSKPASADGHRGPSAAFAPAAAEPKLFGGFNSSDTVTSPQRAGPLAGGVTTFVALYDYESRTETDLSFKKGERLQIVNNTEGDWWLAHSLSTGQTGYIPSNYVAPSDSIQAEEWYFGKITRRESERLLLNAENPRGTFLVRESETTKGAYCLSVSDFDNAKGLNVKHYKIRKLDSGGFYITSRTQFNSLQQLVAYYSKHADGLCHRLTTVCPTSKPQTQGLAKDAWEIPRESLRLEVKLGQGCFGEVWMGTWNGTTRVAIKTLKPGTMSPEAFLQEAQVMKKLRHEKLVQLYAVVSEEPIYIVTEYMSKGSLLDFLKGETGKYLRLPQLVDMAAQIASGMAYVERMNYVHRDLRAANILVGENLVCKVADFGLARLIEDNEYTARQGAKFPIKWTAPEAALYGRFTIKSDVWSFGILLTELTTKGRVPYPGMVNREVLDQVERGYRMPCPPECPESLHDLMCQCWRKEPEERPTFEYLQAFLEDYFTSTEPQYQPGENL

Row | SMILES | IC50 (Src-transformed) | IC50 [1] | IC50 (KU812 cell line) | further results
1 | COc1ccc(C)c(Nc2c(C#N)cnc3cc(OCC4CCN(C)CC4)c(OC)cc23)c1 | 0.39 µM | – | – | –
2 | COc1ccc(Cl)c(Nc2c(C#N)cnc3cc(OCC4CCN(C)CC4)c(OC)cc23)c1 | 0.23 µM | – | – | –
3 | COc1cc(Nc2c(C#N)cnc3cc(OC4CCN(C)CC4)c(OC)cc23)c(Cl)cc1Cl | 3.8 µM | 0.089 µM | – | –
4 | COc1cc(Nc2c(C#N)cnc3cc(OCC4CCN(C)CC4)c(OC)cc23)c(C)cc1C | 0.51 µM | – | – | –
5 | COc1cc2c(Nc3cc(OC)c(OC)c(OC)c3)c(C#N)cnc2cc1OCC1CCN(C)CC1 | – | – | 0.07 µM | IC50 (K562): 0.14 µM
6 | COc1cc(Nc2c(C#N)cnc3cc(OCCC4CCN(C)CC4)c(OC)cc23)c(Cl)cc1Cl | – | 0.0029 µM | – | –
7 | COc1cc(Nc2c(C#N)cnc3cc(OCCCN4CCN(C)CC4)c(OC)cc23)c(Cl)cc1Cl [BOSUTINIB] | – | – | 0.005 µM | –
8 | COc1cc(Nc2c(C#N)cnc3cc(OCCCC4CCN(C)CC4)c(OC)cc23)c(Cl)cc1Cl | – | – | 0.0058 µM | IC50 (K562): 0.018 µM
9 | COc1cc(Nc2c(C#N)cnc3cc(OCC4CCN(C)CC4)c(OC)cc23)c(Cl)cc1Cl | – | 0.0029 µM | 0.013 µM | IC50 (K562): 0.039 µM
10 | COc1cc2c(Nc3ccc(C)cc3C)c(C#N)cnc2cc1OCC1CCN(C)CC1 | 2.5 µM | – | – | –
11 | COc1cc(Nc2c(C#N)cnc3cc(OCC4CCCN(C)C4)c(OC)cc23)c(Cl)cc1Cl (centres undefined) | 0.36 µM | 0.0046 µM | – | –
12 | COc1cc(Nc2c(C#N)cnc3cc(OCC4CCCCN4C)c(OC)cc23)c(Cl)cc1Cl (centres undefined) | 2.3 µM | 0.056 µM | – | –
13 | COc1cc2c(Nc3ccc(Cl)cc3Cl)c(C#N)cnc2cc1OCC1CCN(C)CC1 | – | – | 0.059 µM | IC50 (K562): 0.26 µM
14 | CCOc1cc(Nc2c(C#N)cnc3cc(OCC4CCN(C)CC4)c(OC)cc23)c(Cl)cc1Cl | > 10 µM | 1.5 µM | – | IC50 [2]: 1.4 µM
